Assay results published in publication PMC4503722, “Novel Phenotypic Outcomes Identified for a Public Collection of Approved Drugs from a Publicly Accessible Panel of Assays” (PLoS ONE, 2015).
Where two headings read alike, the source gives them in different places.

Legend:
INS-1E cells = assay: cells; assay type: cell-based, rat
HeLa cells = assay: cells; assay type: cell-based
[1] = system: endothelial tube formation in co-cultures of ECFCs and ADSCs treated with VEGF; assay: cells; assay type: cell-based, human
[2] = system: ECFC/ADSC co-culture cell nuclei number
NCI-H716 cells = assay: cells; assay type: cell-based, Human; details: concentration response
SNU-C1 = assay: cells; assay type: cell-based; details: basal
[3] = system: HCT116 cells treated with a GSK3β inhibitor; assay: cells; assay type: cell-based
HT-29 = assay: cells; assay type: cell-based; details: basal
Colo320 = assay: cells; assay type: cell-based; details: basal
SW480 = assay: cells; assay type: cell-based; details: basal
DLD-1 = assay: cells; assay type: cell-based; details: basal
RKO = assay: cells; assay type: cell-based; details: basal
HCT116 = assay: cells; assay type: cell-based; details: basal
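Throughout, for 5mMGluc INS1E SecretionMod IC50/EC50: secreted insulin quantified by homogeneous immunoassay.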
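Throughout, for IC50/EC50, 5mMGluc INS1E SecretionMod (assay number 8): secreted insulin quantified by homogeneous immunoassay.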

## CCC(CN)=C(c1ccccc1)c1ccccc1.Cl [NCGC00262942-01]
INS-1E cells; assay number 8, 5 mM glucose
  5mMGluc_INS1E SecretionMod IC50/EC50: 10.7785 µM

## CC(C(O)c1ccccc1)N(C)CCOC(c1ccccc1)c1ccccc1 (stereo not shown) [NCGC00181913-02]
INS-1E cells; assay number 8, 5 mM glucose
  5mMGluc_INS1E SecretionMod IC50/EC50: > 33.33 µM

## CCCC(CCC)C(=O)O [NCGC00162288-07]
INS-1E cells; 5 mM glucose
  IC50/EC50, 5mMGluc_INS1E SecretionMod (assay number 8): > 33.33 µM

## CCCN1CCCC[C@H]1C(=O)Nc1c(C)cccc1C [NCGC00164597-02]
INS-1E cells; assay number 8, 5 mM glucose
  5mMGluc_INS1E SecretionMod IC50/EC50: > 33.33 µM

## CN(C)CC[C@H](c1ccc(Cl)cc1)c1ccccn1 [NCGC00015227-08]
INS-1E cells; assay number 8, 5 mM glucose
  5mMGluc_INS1E SecretionMod IC50/EC50: 17.749 µM

## CN(C)CCN1C(=O)c2ccccc2N(C)c2ccccc21 [NCGC00160395-04]
INS-1E cells; 5 mM glucose
  IC50/EC50, 5mMGluc_INS1E SecretionMod (assay number 8): > 33.33 µM

## CN(C)CCCOc1nn(Cc2ccccc2)c2ccccc12.Cl [NCGC00016397-04]
INS-1E cells; 5 mM glucose
  IC50/EC50, 5mMGluc_INS1E SecretionMod (assay number 8): 21.3864 µM

## CN1CCN2c3ccccc3Cc3ccccc3C2C1 (stereo not shown) [NCGC00015656-12]
INS-1E cells; assay number 8, 5 mM glucose
  5mMGluc_INS1E SecretionMod IC50/EC50: > 11.11 µM

## CCCCN(CCCC)C(C(N)=O)c1ccc(OC)cc1 (stereo not shown) [NCGC00261978-01]
INS-1E cells; assay number 8, 5 mM glucose
  5mMGluc_INS1E SecretionMod IC50/EC50: > 33.33 µM

## CN(C)CC/C=C1\c2ccccc2Sc2ccc(Cl)cc21 [NCGC00013683-06]
INS-1E cells; assay number 8, 5 mM glucose
  5mMGluc_INS1E SecretionMod IC50/EC50: > 33.33 µM

## CCO[C@H](Cc1ccc(OCCc2ccc(OS(C)(=O)=O)cc2)cc1)C(=O)O [NCGC00182082-03]
INS-1E cells; assay number 8, 5 mM glucose
  5mMGluc_INS1E SecretionMod IC50/EC50: > 33.33 µM

## CC(=O)c1ccc2c(c1)N(CCCN(C)C)c1ccccc1S2 [NCGC00016634-04]
INS-1E cells; assay number 8, 5 mM glucose
  5mMGluc_INS1E SecretionMod IC50/EC50: 11.3835 µM

## CN1C(=O)CC[C@H]1c1cccnc1 [NCGC00093739-13]
INS-1E cells; assay number 8, 5 mM glucose
  5mMGluc_INS1E SecretionMod IC50/EC50: > 33.33 µM

## COc1ccc2c(c1)C(=O)N(CCc1ccc(S(=O)(=O)NC(=O)NC3CCCCC3)cc1)C(=O)C2(C)C [NCGC00016819-05]
INS-1E cells; assay number 8, 5 mM glucose
  5mMGluc_INS1E SecretionMod IC50/EC50: 0.2299 µM

## COc1ccc2c(c1OC)C(=O)O[C@@H]2[C@H]1c2cc3c(cc2CCN1C)OCO3 [NCGC00017326-05]
INS-1E cells; assay number 8, 5 mM glucose
  5mMGluc_INS1E SecretionMod IC50/EC50: > 33.33 µM

## CCCCOc1cc(C(=O)OCCN(CC)CC)ccc1N [NCGC00016667-04]
INS-1E cells; assay number 8, 5 mM glucose
  5mMGluc_INS1E SecretionMod IC50/EC50: 15.5055 µM

## N=c1nc(N2CCCCC2)cc(N)n1O [NCGC00015673-13]
INS-1E cells; 5 mM glucose
  IC50/EC50, 5mMGluc_INS1E SecretionMod (assay number 8): > 33.33 µM

## C[C@@H](CN(C)C)CN1c2ccccc2Sc2ccccc21.C[C@@H](CN(C)C)CN1c2ccccc2Sc2ccccc21.O=C(O)C(O)C(O)C(=O)O [NCGC00178737-05]
INS-1E cells; 5 mM glucose
  IC50/EC50, 5mMGluc_INS1E SecretionMod (assay number 8): > 33.33 µM

## CN(C)CCOC(C)(c1ccccc1)c1ccccn1.O=C(O)CCC(=O)O (stereo not shown) [NCGC00021147-11]
INS-1E cells; assay number 8, 5 mM glucose
  5mMGluc_INS1E SecretionMod IC50/EC50: > 33.33 µM

## Cc1ccc(-n2nc(C(C)(C)C)cc2NC(=O)Nc2ccc(OCCN3CCOCC3)c3ccccc23)cc1 [NCGC00241104-02]
INS-1E cells; assay number 8, 5 mM glucose
  5mMGluc_INS1E SecretionMod IC50/EC50: > 33.33 µM

## CC(CCc1ccccc1)NC(C)C(O)c1ccc(O)cc1 (stereo not shown) [NCGC00015716-09]
INS-1E cells; assay number 8, 5 mM glucose
  5mMGluc_INS1E SecretionMod IC50/EC50: 14.4759 µM

## CCC1=C(C)CN(C(=O)NCCc2ccc(S(=O)(=O)NC(=O)NC3CCC(C)CC3)cc2)C1=O (stereo not shown) [NCGC00016960-07]
INS-1E cells; assay number 8, 5 mM glucose
  5mMGluc_INS1E SecretionMod IC50/EC50: 0.00406 µM

## COCCCOc1ccnc(C[S+]([O-])c2nc3ccccc3[n-]2)c1C.[Na+] (stereo not shown) [NCGC00159518-05]
INS-1E cells; 5 mM glucose
  IC50/EC50, 5mMGluc_INS1E SecretionMod (assay number 8): > 33.33 µM

## CN1CCN(CCC(=O)N2c3ccccc3Sc3ccc(C(F)(F)F)cc32)CC1 [NCGC00160483-02]
INS-1E cells; assay number 8, 5 mM glucose
  5mMGluc_INS1E SecretionMod IC50/EC50: > 11.11 µM

## COc1ccc(Cl)cc1C(=O)NCCc1ccc(S(=O)(=O)NC(=O)NC2CCCCC2)cc1 [NCGC00015467-20]
INS-1E cells; 5 mM glucose
  IC50/EC50, 5mMGluc_INS1E SecretionMod (assay number 8): 0.00808 µM

## CCN(CC)CCNC(=O)c1c(C)[nH]c(/C=C2\C(=O)Nc3ccc(F)cc32)c1C [NCGC00164631-05]
HeLa cells; assay number 14, 2N
  Hela CellCycMod PI 2N IC50/EC50: > 10 µM
HeLa cells; assay number 15, S phase
  Hela CellCycMod PI S Phase IC50/EC50: > 10 µM
HeLa cells; assay number 16, 4N
  Hela CellCycMod PI 4N IC50/EC50: > 10 µM
HeLa cells; assay number 17, MI
  Hela CellCycMod PI MI IC50/EC50: 3.8121 µM
HeLa cells; assay number 18, cell number
  Hela CellCycMod PI Cell Number IC50/EC50: 1.2784 µM
[1]
  VEGF_ADSC\ECFC Angio CD31 TubeArea IC50/EC50: 0.0254 µM
[2]
  VEGF_ADSC\ECFC Angio Hoechst NucArea IC50/EC50: > 10 µM
INS-1E cells; assay number 8, 5 mM glucose
  5mMGluc_INS1E SecretionMod IC50/EC50: > 33.33 µM

## CN1CCC(N(Cc2cccs2)c2ccccc2)CC1 [NCGC00183847-01]
INS-1E cells
  5mMGluc_INS1E SecretionMod IC50/EC50: 20.3958 µM

## CCN1CCCC(OC(=O)C(c2ccccc2)c2ccccc2)C1 (stereo not shown) [NCGC00178395-04]
INS-1E cells; assay number 8, 5 mM glucose
  5mMGluc_INS1E SecretionMod IC50/EC50: 18.2267 µM

## CNCCCCOc1ccccc1Cc1ccccc1 [NCGC00024778-02]
INS-1E cells; assay number 8, 5 mM glucose
  5mMGluc_INS1E SecretionMod IC50/EC50: > 33.33 µM

## Cc1ccc(C(=O)Nc2ccc(S(=O)(=O)O)c3cc(S(=O)(=O)O)cc(S(=O)(=O)O)c23)cc1NC(=O)c1cccc(NC(=O)Nc2cccc(C(=O)Nc3cc(C(=O)Nc4ccc(S(=O)(=O)O)c5cc(S(=O)(=O)O)cc(S(=O)(=O)O)c45)ccc3C)c2)c1 [NCGC00025177-08]
NCI-H716 cells
  IC50/EC50, hNCI-H716 GLP1 Secretion (assay number 12): > 40 µM

## O=C(CCCN1CCC(O)(c2ccc(Br)cc2)CC1)c1ccc(F)cc1 [NCGC00016692-05]
INS-1E cells; assay number 8, 5 mM glucose
  5mMGluc_INS1E SecretionMod IC50/EC50: > 33.33 µM

## CCN(CC)CCOc1ccc(Cc2ccccc2)cc1 [NCGC00024762-04]
INS-1E cells; assay number 8, 5 mM glucose
  5mMGluc_INS1E SecretionMod IC50/EC50: > 33.33 µM

## COc1ccccc1N1CCN(CCCCNC(=O)c2ccc(-c3ccc(C(C)=O)cc3)cc2)CC1 [NCGC00025004-04]
INS-1E cells; assay number 8, 5 mM glucose
  5mMGluc_INS1E SecretionMod IC50/EC50: > 33.33 µM

## OC[C@H]1O[C@@H](n2cnc3c(=S)nc[nH]c32)[C@H](O)[C@@H]1O [NCGC00096122-05]
SNU-C1
  IC50/EC50, Basal_Viability ATP SNU-C1 (assay number 30): 2.185 µM
HeLa cells; 2N
  IC50/EC50, Hela CellCycMod PI 2N (assay number 14): > 10 µM
HeLa cells; 4N
  IC50/EC50, Hela CellCycMod PI 4N (assay number 16): > 10 µM
HeLa cells; Cell Number
  IC50/EC50, Hela CellCycMod PI Cell Number (assay number 18): > 10 µM
HeLa cells; MI
  IC50/EC50, Hela CellCycMod PI MI (assay number 17): > 10 µM
HeLa cells; S Phase
  IC50/EC50, Hela CellCycMod PI S Phase (assay number 15): > 10 µM
[3]; GSK3b inh pretreated
  IC50/EC50, GSK3b inh pretreated_Viability ATP HCT116 (assay number 26): 0.5044 µM
HT-29
  IC50/EC50, Basal_Viability ATP HT-29 (assay number 28): 0.1181 µM
[1]
  IC50/EC50, VEGF_ADSC\ECFC Angio CD31 TubeArea (assay number 2): 1.4206 µM
Colo320
  IC50/EC50, Basal_Viability ATP Colo 320 (assay number 27): 1.064 µM
SW480
  IC50/EC50, Basal_Viability ATP SW480 (assay number 24): 0.02867 µM
DLD-1
  IC50/EC50, Basal_Viability ATP DLD-1 (assay number 23): 0.06302 µM
RKO
  IC50/EC50, Basal_Viability ATP RKO (assay number 29): 0.01437 µM
[2]
  IC50/EC50, VEGF_ADSC\ECFC Angio Hoechst NucArea (assay number 3): > 10 µM
HCT116
  IC50/EC50, Basal_Viability ATP HCT116 (assay number 25): 0.02858 µM

## Cc1ccc(O)c([C@H](CCN(C(C)C)C(C)C)c2ccccc2)c1 [NCGC00263557-01]
INS-1E cells; assay number 8, 5 mM glucose
  5mMGluc_INS1E SecretionMod IC50/EC50: > 33.33 µM

## COc1ccc(CN(CCN(C)C)c2ccccn2)cc1 [NCGC00015822-15]
INS-1E cells; 5 mM glucose
  IC50/EC50, 5mMGluc_INS1E SecretionMod (assay number 8): 15.3614 µM

## Cc1cc(-n2nc3ccc(Cl)cc3n2)c(O)c(C(C)(C)C)c1 [NCGC00166260-03]
INS-1E cells; assay number 8, 5 mM glucose
  5mMGluc_INS1E SecretionMod IC50/EC50: > 33.33 µM

## O=C(CCN1CCN2CCCC2C1)N1c2ccccc2Sc2ccc(Cl)cc21 (stereo not shown) [NCGC00164539-02]
INS-1E cells; assay number 8, 5 mM glucose
  5mMGluc_INS1E SecretionMod IC50/EC50: 16.7552 µM

## O=C1NCN(c2ccccc2)C12CCN(CCCOc1ccc(F)cc1)CC2 [NCGC00024633-07]
SNU-C1; assay number 30
  Basal_Viability ATP SNU-C1 IC50/EC50: 0.2416 µM
[3]; assay number 26, GSK3b inhibitor pretreated
  GSK3b inh pretreated_Viability ATP HCT116 IC50/EC50: 5.333 µM
HT-29; assay number 28
  Basal_Viability ATP HT-29 IC50/EC50: 2.458 µM
Colo320; assay number 27
  Basal_Viability ATP Colo 320 IC50/EC50: 11.821 µM
SW480; assay number 24
  Basal_Viability ATP SW480 IC50/EC50: 4.608 µM
DLD-1; assay number 23
  Basal_Viability ATP DLD-1 IC50/EC50: 0.8817 µM
RKO; assay number 29
  Basal_Viability ATP RKO IC50/EC50: 5.3051 µM
HCT116; assay number 25
  Basal_Viability ATP HCT116 IC50/EC50: 8.82 µM
INS-1E cells; assay number 8, 5 mM glucose
  5mMGluc_INS1E SecretionMod IC50/EC50: > 33.33 µM

## CCN(CC)C(C)CN1c2ccccc2Sc2ccccc21.Cl (stereo not shown) [NCGC00178860-06]
INS-1E cells; assay number 8, 5 mM glucose
  5mMGluc_INS1E SecretionMod IC50/EC50: > 33.33 µM

## C[C@@H](C1=C(CCN(C)C)Cc2ccccc21)c1ccccn1.O=C(O)/C=C\C(=O)O [NCGC00025158-02]
INS-1E cells; assay number 8, 5 mM glucose
  5mMGluc_INS1E SecretionMod IC50/EC50: 8.4103 µM
